Data as given in patent US6368788B1 (priority 1987, dated 2002).
Several values for one entry are separate records, joined by “and”; a condition that tells them apart may be missing. Identical values can stand only once. Entries after “also recorded” stand apart in the source; their conditions may differ. Like-named read-outs stand apart in the source and are kept apart here. Marks after values point to notes of the source that are not given here.

Key:
Mycobacterium leprae = type: in vivo, human
[1] = Pelvic inflammatory diseases; type: in vivo, human
Protocol: Ninety-six female patients (96) were entered into a trial having a variety of different disorders, i.e., pelvic inflammatory diseases, cervicitis, vaginitis and various tubo-ovarian and adnexal abscesses. Forty-six patients (46) comprised the L-Glu-L-Trp treatment group, and 50 patients comprised a conventional treatment control group. L-Glu-L-Trp was administered daily im at a dose of 100 μg, or 1 μg/kg intranasally, on each of 5 consecutive days. Alternatively, 50 μg of L-Glu-L-Trp was injected intralymphatically on each of 5 consecutive days in conjunction with conventional therapy. […] Normalization of immune parameters was correlated with the observed clinical improvements.
Patients entered into Group 1 (aged 19-50) were separable into clinical subgroups as follows: Subgroup 1A, consisted of 18 patients having […] (body temperature 38-39° C.), and suppurative vaginal discharge after infected abortions performed outside hospitals (average age 24.4±4.2 years); Subgroup 1B, consisted of 16 patients with abdominal pains resulting from chronic nonspecific subfebrile (<38° C.) inflammatory disease of the fallopian tubes (average age 32.2±3.9 years; range of abortions in the patient population 2-8); and, Subgroup 1C consisted of 12 patients with inflammation of the fallopian tubes, (38% resulting from placement of an IUD in the uterus more than 4 years previously). […] Group 2 (control) was constituted of 50 patients (aged 18-44) presenting with analogous symptoms and diseases and the patients in this group were treated with traditional antibiotic therapy.
In all cases L-Glu-L-Trp was delivered im at a dose of 100 μg in 1 ml volume daily on each of five days.
Treatment A: Administered to patients in Group 1A: The course of L-Glu-L-Trp therapy was administered, remnants of fetal tissue were surgically removed, and an additional course of L-Glu-L-Trp therapy was administered.
Treatment B: Administered to patients in Group 1B: L-Glu-L-Trp therapy was administered immediately upon admission into the protocol.
Treatment C: Administered to patients in Group 1C: Infected uterine tissues were surgically removed, abdominal drainage was established, and L-Glu-L-Trp therapy was administered starting 2 days post-operatively.
Patients were evaluated by monitoring the following parameters before, during, and 5-7 days after therapy: i) clinical status of the patient (i.e., body temperature, abdominal pain, and physical examinations) and, ii) laboratory data (i.e., urinalysis, blood chemistry, and blood immunology). The following clinical chemistry values of the patients in Groups 1A, 1B, and 1C were all within the normal range before and after treatment: AST, ALT, creatinine, urea, glucose, protein, chloride, potassium, and sodium. […] Treatment with L-Glu-L-Trp reduced the latter serum markers, i.e., alkaline phosphatase fell to 62.71±5.67 ED/mL and bilirubin to 0.50±0.03 mg %.

[2] = pooled Groups 1A-1C, After L-Glu-L-Trp Therapy

## L-Glu-L-Trp
Mycobacterium leprae; 5-7 days
  Mean % responsive PBL (blast cells), Con-A: 22.5 ± 4.0%
  Mean % responsive PBL (blast cells), PHA: 28.7 ± 3.8%
Mycobacterium leprae; in vivo
  Additional decrease in area of ulceration, primary NTU: 23.2% and 22%
  Blast cells responsive to synthetic leprosy antigen: 2.86±0.9%
  Clinical outcome: resolution of dermal leprotic lesions
  Decrease in area of ulceration, primary NTU: 40%
  Decrease in area of ulceration, recurrent ulcers: 22.6%
  EI change versus Before (↓): (↓33%)
  Healing time, primary NTU: 3-6 weeks
  Healing time, secondary recurrent NTU: 4-6 weeks
  Increase of blast responsiveness of patient lymphocytes to Con-A: 1.6 fold
  Increase of blast responsiveness of patient lymphocytes to PHA: 1.8 fold
  Increase of lymphocytes responsive to synthetic leprosy antigen: about 1.6 fold
  Lepromin skin test conversion: four subjects with negative skin tests for lepromin at the beginning of therapy turned positive
  Mean % responsive PBL (blast cells), Con-A: 36.9 ± 1.28%
  Mean % responsive PBL (blast cells), PHA: 22.3 ± 1.43%
  OKT 4 (%): 40.67 ± 1.44% and 43.25 ± 1.91%
  OKT 4/OKT 8: 1.61 ± 0.08 and 1.68 ± 0.32
  OKT 8 (%): 25.56 ± 1.15% and 27.25 ± 3.42%
  OKT 11 (%): 72.22 ± 1.52% and 76.25 ± 0.87%
  Rate of healing, primary NTU: 6.34 mm^2/day
  Rate of healing, recurrent NTU: 5.91 mm^2/day
  Romanovsky Staining: regenerative: lst or 2nd phase; also recorded: regenerative: 2nd or 3rd. phase,; also recorded: regenerative: 3rd. phase/healing;; also recorded: degenerative cells &
[1]; after treatment
  Alkaline phosphatase: 62.71±5.67 ED/mL
  B-lymphocytes, % of normal: ~55%
  Bilirubin: 0.50±0.03 mg %
  Lymphocytes, % of normal: about 81%
  T-lymphocytes, % of normal: about 75%
[1]; in vivo
  Clinical outcome: alleviated pain, reduced fever, and decreased the duration of the medical treatment
[1]; [2]
  B-Lymphocytes: % of Normal Value: (55%)
  B-Lymphocytes: % of PBL: 11.09 ± 0.87 % of PBL
  B-Lymphocytes: No.: 0.27 ± 0.03* 10^9/L
  Blastogenic Response: % Lym blast w/Con A: 68.70 ± 5.32%
  Blastogenic Response: % Lym blast w/PHA: 37.22 ± 2.81 %
  IgA: 2.61 ± 0.33 g/L
  IgA % Normal Value: (137%)
  IgG: 13.73 ± 0.51 g/L
  IgG % Normal Value: (126%)
  IgM: 2.64 ± 0.36 g/L
  IgM % Normal Value: (176%)
  Lymphocytes: % Normal Value: (81%)
  Lymphocytes: % of PBL: 36.61 ± 1.32 % of PBL
  Lymphocytes: No.: 2.26 ± 0.12* 10^9/L
  Phagocytes: % PBL: 74.78 ± 2.35 % PBL
  T-Lymphocytes: % of Lym: 71.57 ± 1.76 % of Lym
  T-Lymphocytes: % of Normal Value: (75%)
  T-Lymphocytes: No.: 1.67 ± 0.09* 10^9/L
